# Laboratory results reported in patent US6110888A, “Substituted phenols as fragrance, flavor and antimicrobial compounds” (Takasago International Corporation, priority 1999, dated 2000).
# Where two headings read alike, the source gives them in different places.
# Tests used:
# [1] = test system: Pseudomonas aeruginosa; assay: MIC, P. aeruginosa (Table 2); format: cell-based; details: read-out: Anti-Microbial Activity MIC, P. aerug.
# Description: (§1) Anti-Microbial Activity of Examples 1-6 (MIC in μg/mL)
# (§2) Antimicrobial activity was evaluated to determine minimal inhibitory concentration ("MIC") and Minimal Bactericidal Concentration ("MBC"). The specific biological testing protocol is published R. Kang et al., "J. Agric. Food Chem.," vol. 40 pp. 2328-2330 (1994), the entirety of which is herein incorporated by reference.
# [2] = test system: Corynebacterium minutissimum; assay: MIC, C. minutissimum (Table 1); format: cell-based; details: read-out: Anti-Microbial Activity MIC, C. m.
# Description: (§3) The anti-microbial activity of Examples 1-6 were evaluated.
# as §1, §2
# [3] = test system: Staphylococcus epidermidis; assay: MIC, S. epidermidis (Table 1); format: cell-based; details: read-out: Anti-Microbial Activity MIC, S. e.
# Description: as §3, §1, §2
# [4] = test system: Corynebacterium xerosis; assay: MIC, C. xerosis (Table 1); format: cell-based; details: read-out: Anti-Microbial Activity MIC, C. x.
# Description: as §3, §1, §2
# [5] = test system: Staphylococcus aureus; assay: MIC, S. aureus (Table 1); format: cell-based; details: read-out: Anti-Microbial Activity MIC, S. a.
# Description: as §3, §1, §2
# [6] = test system: Propionibacterium acnes; assay: MIC, P. acnes (Table 1); format: cell-based; details: Cutibacterium acnes, read-out: Anti-Microbial Activity MIC, P. acnes
# Description: as §3, §1, §2
# [7] = test system: Aspergillus niger; assay: MIC, A. niger (Table 2); format: cell-based; details: read-out: Anti-Microbial Activity MIC, A. niger
# Description: as §1, §2
# [8] = test system: Actinomyces neaslundii; assay: MIC, A. neaslundii (Table 1); format: cell-based; details: read-out: Anti-Microbial Activity MIC, A. neasl
# Description: as §3, §1, §2
# [9] = test system: Escherichia coli; assay: MIC, E. coli (Table 2); format: cell-based; details: read-out: Anti-Microbial Activity MIC, E. c.
# Description: as §1, §2
# [10] = test system: Steptococcus mutans; assay: MIC, S. mutans (Table 1); format: cell-based; details: Streptococcus mutans, read-out: Anti-Microbial Activity MIC, S. m.
# Description: as §3, §1, §2
# [11] = test system: Candida albicans; assay: MIC, C. albicans (Table 2); format: cell-based; details: read-out: Anti-Microbial Activity MIC, C. a.
# Description: as §1, §2
# [12] = test system: oral bacteria; details: N. Didry et al. 1994; cited from earlier work
# [13] = test system: bacteria involved in upper respiratory tract infections; details: N. Didry et al. 1993; cited from earlier work
# [14] = P. aeruginosa strain 15442, gram -
# [15] = C. minutissimum strain 23348, gram+
# [16] = S. epidermidis strain 1228, gram+
# [17] = A. neaslundii strain 19039, gram+
# [18] = C. albicans strain 10231, fungi
SMILES,"MIC [1, 14] [µg/mL]","MIC [2, 15] [µg/mL]","MIC [3, 16] [µg/mL]","MIC ([4]; C. xerosis strain 373, gram+) [µg/mL]","MIC ([5]; S. aureus strain 6535, gram+) [µg/mL]","MIC ([6]; P. acnes strain 6919, gram+) [µg/mL]","MIC ([7]; A. niger strain 16404, fungi) [µg/mL]","MIC [8, 17] [µg/mL]","MIC ([9]; E. coli strain 11229, gram -) [µg/mL]","MIC ([10]; S. mutans strain 25175, gram+) [µg/mL]","MIC [11, 18] [µg/mL]",further results
"C=CCc1c(C)ccc(C(C)C)c1O [Example 1a, Ortho Allyl Thymol]",> 1000,62.5,62.5,62.5,62.5,62.5,125,62.5,> 1000,62.5,125,
"C=CCc1cc(C(C)C)c(O)cc1C [Example 1b, Para Allyl Thymol]",> 1000,62.5,62.5,62.5,62.5,31.2,125,62.5,> 1000,31.2,125,
"C=CCc1c(C(C)C)ccc(C)c1O [Example 2a, Ortho Allyl Carvacrol]",> 1000,62.5,62.5,62.5,62.5,31.2,125,62.5,> 1000,62.5,125,
"C=CCc1cc(C)c(O)cc1C(C)C [Example 2b, Para Allyl Carvacrol]",,62.5,62.5,62.5,62.5,62.5,125,,,62.5,125,
"CCCc1c(C)ccc(C(C)C)c1O [Example 3a, Ortho Propyl Thymol]",> 1000,62.5,62.5,62.5,62.5,31.2,125,62.5,> 1000,31.2,125,
"CCCc1cc(C(C)C)c(O)cc1C [Example 3b, Para Propyl Thymol]",> 1000,31.2,31.2,31.2,31.2,31.2,125,31.2,> 1000,31.2,62.5,
"CCCc1c(C(C)C)ccc(C)c1O [Example 4a, Ortho Propyl Carvacrol]",> 1000,31.2,31.2,31.2,125,31.2,125,31.2,> 1000,31.2,62.5,
"CCCc1cc(C)c(O)cc1C(C)C [Example 4b, Para Propyl Carvacrol]",> 1000,≤ 15.6,31.2,≤ 15.6,≤ 15.6,≤ 15.6,62.5,≤ 15.6,> 1000,≤ 15.6,62.5,
"C=CCc1cc(C(C)(C)C)ccc1O [Example 5, Ortho Allyl Para tert-Butyl Phenol]",,31.2,31.2,31.2,31.2,15.6,,,> 500,,,
"CCCc1cc(C(C)(C)C)ccc1O [Example 6, Ortho Propyl Para tert-Butyl Phenol]",,15.6,15.6,15.6,15.6,7.8,,,> 500,,,
"Cc1ccc(C(C)C)c(O)c1 [Thymol, thymol, reference compound]",> 1000,125,250,250,250,125,125,125,250,250,250,inhibitory activity on several microorganisms [12]: showed an inhibitory activity on several microorganisms; antimicrobial activity in several in vitro methods [13]: broad spectrum activity
"Cc1ccc(C(C)C)cc1O [carvacrol, reference compound]",,,,,,,,,,,,MIC [1]: > 1000 µg/mL; MIC [2]: 125 µg/mL; MIC [3]: 125 µg/mL; MIC [4]: 125 µg/mL; MIC [5]: 125 µg/mL; inhibitory activity on several microorganisms [12]: showed an inhibitory activity on several microorganisms; antimicrobial activity in several in vitro methods [13]: broad spectrum activity; MIC [6]: 125 µg/mL; MIC [7]: 250 µg/mL; MIC [8]: 125 µg/mL; MIC [9]: 500 µg/mL; MIC [10]: 125 µg/mL; MIC [11]: 250 µg/mL
O=CC=Cc1ccccc1 [cinnamaldehyde],,,,,,,,,,,,inhibitory activity on several microorganisms [12]: showed an inhibitory activity on several microorganisms; antimicrobial activity in several in vitro methods [13]: broad spectrum activity
C=CCc1ccc(O)c(OC)c1 [eugenol],,,,,,,,,,,,inhibitory activity on several microorganisms [12]: showed an inhibitory activity on several microorganisms
